Experimental data as given in patent US9375404B2 (Duchesnay Inc., priority 2012, dated 2016).

Experiment: clinical
Settings: human, in vivo
Procedure: Data are from bioavailability studies in healthy volunteers. 5 mg: 12 healthy men, 20 mg: 42 healthy women, 25 mg: 12 healthy women, 40 mg: 18 healthy women;

What does the source list for `Cc1ncc(COP(=O)(O)O)c(C=O)c1O` [PLP, pyridoxal 5-phosphate]?
availability among pyridoxine metabolites: most available active metabolite; dose vs. Cmax relationship (linearity of pharmacokinetics): increase more than expected; half-life: 60 h; persistence in the systemic circulation: remaining in the systemic circulation the longest

For `CN(C)CCOC(C)(c1ccccc1)c1ccccn1` (centres unmarked) [doxylamine, reference compound], which half-life (half-life) is on record?
Its half-life is ~12 h.

With `Cc1ncc(CO)c(CO)c1O` [pyridoxine, reference compound] as the compound, how does the “amount unchanged in blood” value read?
The value was “about 1%”.

What about the “availability with increasing dose” value of the same compound?
Its value is “availability is not increased”.

What about the “dose vs. Cmax relationship (linearity of pharmacokinetics)” value of the same compound?
The value was “Cmax increases less than expected”.

What about the “inter subject and inter study variations” value of the same compound?
Its value is “significantly higher”.

What about the metabolism of the same compound?
The metabolism was “rapidly metabolized”.

With `Cc1ncc(CO)c(C=O)c1O` [pyridoxal] as the compound, how does the bioavailability at steady-state read?
Its bioavailability at steady-state is “significant bioavailability increases”.

And the “change in Cmax and AUC” value?
The value was “significant increase”.

And the “change in T1/2” value?
Its value is “significant lengthening”.

And the “dose vs. Cmax relationship (linearity of pharmacokinetics)” value?
Its value is “increase more than expected”.
